Structures are written as SMILES.

For the experiment, the target named is T1, AR protein (Homo sapiens, UniProt P10275).
T1 construct: VCap is a human prostate cancer cell line purchased from ATCC; host or cells: VCaP human prostate cancer cells
T1 sequence (P10275 1-920): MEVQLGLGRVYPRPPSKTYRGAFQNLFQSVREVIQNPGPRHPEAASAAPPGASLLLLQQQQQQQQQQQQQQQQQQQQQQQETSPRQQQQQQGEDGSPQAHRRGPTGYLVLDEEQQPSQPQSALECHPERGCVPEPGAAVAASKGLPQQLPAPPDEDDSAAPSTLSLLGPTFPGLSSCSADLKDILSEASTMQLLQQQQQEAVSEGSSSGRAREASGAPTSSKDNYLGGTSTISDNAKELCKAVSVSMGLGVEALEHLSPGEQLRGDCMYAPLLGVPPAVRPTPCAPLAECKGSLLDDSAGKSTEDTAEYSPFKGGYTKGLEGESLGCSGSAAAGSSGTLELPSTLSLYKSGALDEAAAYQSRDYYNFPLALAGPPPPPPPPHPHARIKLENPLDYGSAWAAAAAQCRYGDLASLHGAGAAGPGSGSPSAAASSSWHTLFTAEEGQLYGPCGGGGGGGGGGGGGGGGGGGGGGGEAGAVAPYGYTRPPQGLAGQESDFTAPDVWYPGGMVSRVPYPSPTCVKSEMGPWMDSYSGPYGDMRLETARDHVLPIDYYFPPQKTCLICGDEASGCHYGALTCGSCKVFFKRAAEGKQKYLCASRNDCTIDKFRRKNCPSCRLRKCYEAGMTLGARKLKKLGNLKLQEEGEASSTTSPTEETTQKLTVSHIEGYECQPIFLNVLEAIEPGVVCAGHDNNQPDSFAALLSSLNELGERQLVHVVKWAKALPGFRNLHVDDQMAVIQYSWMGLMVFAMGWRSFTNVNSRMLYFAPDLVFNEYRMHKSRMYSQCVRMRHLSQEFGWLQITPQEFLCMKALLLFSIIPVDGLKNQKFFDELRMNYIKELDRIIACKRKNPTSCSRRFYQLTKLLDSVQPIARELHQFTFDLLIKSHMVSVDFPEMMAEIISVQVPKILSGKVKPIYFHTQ
Kind of experiment: Detection of AR degradation in VCaP cells (automated western blot). Format: cell-based. To be noted: for DC50: degradation of AR protein in VCaP cells, 24 hours incubation, read-out: DC50; for Degradation rate %: AR protein in VCaP cells, concentration of 30 nM, 24 hours. As for the experimental part: VCap is a human prostate cancer cell line purchased from ATCC and cultured under the following conditions: DMEM + 10% FBS + 1% penicillin-streptomycin solution. The cells were cultured in a 37°C, 5% CO2 incubator. The cells were seeded in a 6-well plate, with 5 × 10^5 cells/well. After seeding, compounds at various concentrations were added, and the plate was incubated for 24 hours in the 37°C, 5% CO2 incubator. Following incubation, the cells were harvested and RIPA lysis buffer (beyotime, Cat. P0013B) was added. The cells were lysed on ice for 15 minutes and centrifuged at 12,000 rpm at 4°C for 10 minutes. The supernatant protein samples were collected and the protein was quantified using the BCA kit (Beyotime, Cat. P0009). Then the protein was diluted to 0.25 mg/mL. The expressions of AR (CST, Cat.5153S) and the internal reference β-actin (CST, Cat. 3700S) were detected using a fully automated western blot quantitative analyser (Proteinsimple). Using the "Compass for SW" software, the relative peak area of AR was calculated when the internal reference area was 10,000. The proportion of AR relative to the solvent control group at various drug concentrations was calculated according to Equation (1), where ARtreat represents the relative peak area of the compound-treated group, and ARsolvent represents the relative peak area of the solvent control group. The processed data obtained from Equation (1) were analysed using GraphPad Prism 8.3.0 software, and the DC50 value was calculated using a four-parameter nonlinear regression model. The degradation rate at a specified concentration was determined as 100-AR%. AR% = ARtreat/ ARsolvent × 100% [formula]
A general note: Immunoblotting shows a protein as a band on a membrane.

As to `[2H]C([2H])([2H])Oc1cc(O[C@H]2C(C)(C)[C@H](NC(=O)c3ccc(N4CCC5(CC4)CC(CN4CCN6c7cc(F)c(C8CCC(=O)NC8=O)cc7CC[C@H]6C4)C5)cc3)C2(C)C)ccc1C#N` (stereo partly drawn) [Compound 43], the half-maximal degradation concentration (DC50) is less than 100 nM.

The compound `CC#CCOc1cc(O[C@H]2C(C)(C)[C@H](NC(=O)c3ccc(N4CCC(CN5CCN6c7cc(F)c(C(=O)N[C@H]8CCC(=O)NC8=O)cc7CC[C@@H]6C5)CC4)cc3)C2(C)C)ccc1C#N` [Trifluoroacetate of compound 99] registered a Degradation rate % of more than 70%.

`CC1(C)[C@H](NC(=O)c2ccc(N3CCC4(CC3)CC(CN3CCN5c6cc(F)c(C7CCC(=O)NC7=O)cc6CC[C@@H]5C3)C4)cc2)C(C)(C)[C@H]1Oc1ccc(C#N)c(Cl)c1` (stereo partly drawn) [Compound 54]: the DC50 was less than 100 nM.

With `CC1(C)[C@H](NC(=O)c2ccc(N3CCC4(CC3)CC(CN3CCN5c6cc(F)c(C7CCC(=O)NC7=O)cc6CC[C@H]5C3)C4)cc2)C(C)(C)[C@H]1Oc1ccc(C#N)c(Cl)c1` (stereo partly drawn) [Compound 55], the DC50 is less than 100 nM.

Take `COc1cc(O[C@H]2C(C)(C)[C@H](NC(=O)c3ccc(N4CCC(CN5CCN6c7cc(F)c(N8CCC(=O)NC8=O)cc7CC[C@@H]6C5)CC4)nn3)C2(C)C)ccc1C#N` [Trifluoroacetate of compound 62]: the DC50 is less than 100 nM.

As to `CC1(C)[C@H](NC(=O)c2ccc(N3CCC4(CC3)CC(CN3CCN5c6cc(F)c(N7CCC(=O)NC7=O)cc6CC[C@@H]5C3)C4)cc2)C(C)(C)[C@H]1Oc1ccc(C#N)c(Cl)c1` [Compound 56], the DC50 was less than 100 nM.

Take `COc1cc(O[C@H]2C(C)(C)[C@H](NC(=O)c3ccc(N4CCC(CN5CCN6c7ccc(N8CCC(=O)NC8=O)cc7CCC6C5)CC4)cc3)C2(C)C)ccc1C#N` (stereo partly drawn) [Compound 15]: the DC50 was less than 100 nM.

As for `CC1(C)[C@H](NC(=O)c2ccc(N3CCC(CN4CCN5c6cc(F)c(N7CCC(=O)NC7=O)cc6CC[C@@H]5C4)CC3)cc2)C(C)(C)[C@H]1Oc1ccc(C#N)c(Cl)c1` [Compound 50], the DC50 was less than 100 nM.

For the compound `[2H]C([2H])([2H])Oc1cc(O[C@H]2C(C)(C)[C@H](NC(=O)c3ccc(N4CCC5(CC4)CC(CN4CCN6c7cc(F)c(C8CCC(=O)NC8=O)cc7CC[C@@H]6C4)C5)cc3)C2(C)C)ccc1C#N` (stereo partly drawn) [Compound 42], the DC50 is less than 100 nM.

On to `COc1cc(O[C@H]2C(C)(C)[C@H](NC(=O)c3ccc(N4CCC(CN5CCN6c7cc(F)c(N8CCC(=O)NC8=O)cc7CC[C@H]6C5)CC4)nn3)C2(C)C)ccc1C#N` [Trifluoroacetate of compound 63], for which the DC50 is less than 100 nM.

As to `COc1cc(O[C@H]2C(C)(C)[C@H](NC(=O)c3ccc(N4CCC(N5CCN6c7cc(F)c(C8CCC(=O)NC8=O)cc7CC[C@H]6C5)CC4)cc3)C2(C)C)ccc1C#N` (stereo partly drawn) [Trifluoroacetate of compound 21], the DC50 is less than 100 nM.

Turning to `COc1cc(O[C@H]2C(C)(C)[C@H](NC(=O)c3ccc(N4CCC(N5CCN6c7cc(F)c(C(=O)N[C@H]8CCC(=O)NC8=O)cc7CC[C@@H]6C5)CC4)cc3)C2(C)C)ccc1C#N` [Trifluoroacetate of compound 22], the DC50 is less than 100 nM.

`COc1cc(O[C@H]2C(C)(C)[C@H](NC(=O)c3ccc(N4CCC(N5CCN6c7cc(F)c(C8CCC(=O)NC8=O)cc7CC[C@@H]6C5)CC4)cc3)C2(C)C)ccc1C#N` (stereo partly drawn) [Trifluoroacetate of compound 20]: the DC50 was less than 100 nM.

Regarding `COc1cc(O[C@H]2C(C)(C)[C@H](NC(=O)c3ccc(N4CCC5(CC4)CC(N4CCN6c7cc(F)c(C(=O)N[C@H]8CCC(=O)NC8=O)cc7CC[C@H]6C4)C5)cc3)C2(C)C)ccc1C#N` [Trifluoroacetate of compound 18], the DC50 was less than 100 nM.

Take `COc1cc(O[C@H]2C(C)(C)[C@H](NC(=O)c3ccc(N4CCC5(CC4)CC(CN4CCN6c7cc(F)c(C8CCC(=O)NC8=O)cc7CC[C@H]6C4)C5)cc3)C2(C)C)ccc1C#N` (stereo partly drawn) [Trifluoroacetate of compound 10]: the DC50 was less than 100 nM.

The compound `COc1cc(O[C@H]2C(C)(C)[C@H](NC(=O)c3ccc(N4CCC(CN5CCN6c7ncc(C8CCC(=O)NC8=O)cc7CC[C@@H]6C5)CC4)cc3)C2(C)C)ccc1C#N` (stereo partly drawn) [Compound 93] showed a Degradation rate % of more than 70%.

With `CC1(C)[C@H](NC(=O)c2ccc(N3CCC(CN4CCN5c6cc(F)c(C7CCC(=O)NC7=O)cc6CC[C@H]5C4)CC3)cc2)C(C)(C)[C@H]1Oc1ccc(C#N)c(Cl)c1` (stereo partly drawn) [Compound 49], the DC50 is less than 100 nM.

As for `COc1cc(O[C@H]2C(C)(C)[C@H](NC(=O)c3ccc(N4CCC(CN5CCN6c7ncc(C8CCC(=O)NC8=O)cc7CC[C@H]6C5)CC4)cc3)C2(C)C)ccc1C#N` (stereo partly drawn) [Compound 83], the DC50 is less than 100 nM.

For the compound `CC1(C)[C@H](NC(=O)c2ccc(N3CCC4(CC3)CC(CN3CCN5c6cc(F)c(C(=O)N[C@H]7CCC(=O)NC7=O)cc6CC[C@@H]5C3)C4)cc2)C(C)(C)[C@H]1Oc1ccc(C#N)c(Cl)c1` [Compound 58], the DC50 is less than 100 nM.

For `COc1cc(O[C@H]2C(C)(C)[C@H](NC(=O)c3ccc(N4CCC5(CC4)CC(CN4CCN6c7cc(F)c(C8CCC(=O)NC8=O)cc7CC[C@@H]6C4)C5)cc3)C2(C)C)ccc1C#N` (stereo partly drawn) [Trifluoroacetate of compound 9], the DC50 is less than 100 nM.

Consider `COc1cc(O[C@H]2C(C)(C)[C@H](NC(=O)c3ccc(N4CCC5(CC4)CC(CN4CCN6c7cc(F)c(C(=O)N[C@H]8CCC(=O)NC8=O)cc7CC[C@@H]6C4)C5)cc3)C2(C)C)ccc1C#N` [Trifluoroacetate of compound 5], for which the DC50 is less than 100 nM.

On to `COc1cc(O[C@H]2C(C)(C)[C@H](NC(=O)c3ccc(N4CCC5(CC4)CC(N4CCN6c7cc(F)c(N8CCC(=O)NC8=O)cc7CC[C@H]6C4)C5)cc3)C2(C)C)ccc1C#N` [Trifluoroacetate of compound 84], for which the DC50 is less than 100 nM.

Regarding `CC1(C)[C@H](NC(=O)c2ccc(N3CCC4(CC3)CC(CN3CCN5c6cc(F)c(C7CCC(=O)NC7=O)cc6CC[C@@H]5C3)C4)cc2)C(C)(C)[C@H]1Oc1ccc(C#N)c2ncccc12` (stereo partly drawn) [Compound 72], the DC50 was less than 100 nM.

On to `COc1cc(O[C@H]2C(C)(C)[C@H](NC(=O)c3ccc(N4CCC5(CC4)CC(N4CCN6c7cc(F)c(C8CCC(=O)NC8=O)cc7CC[C@H]6C4)C5)cc3)C2(C)C)ccc1C#N` (stereo partly drawn) [Trifluoroacetate of compound 121], for which the Degradation rate % is recorded as more than 70%.

With `COc1cc(O[C@H]2C(C)(C)[C@H](NC(=O)c3ccc(N4CCC(N5CCN6c7cc(F)c(C(=O)N[C@@H]8CCC(=O)NC8=O)cc7CC[C@H]6C5)CC4)cc3)C2(C)C)ccc1C#N` [Trifluoroacetate of compound 25], the DC50 is less than 100 nM.

On to `COc1cc(O[C@H]2C(C)(C)[C@H](NC(=O)c3ccc(N4CCC(N5CCN6c7cc(F)c(C(=O)N[C@H]8CCC(=O)NC8=O)cc7CC[C@H]6C5)CC4)cc3)C2(C)C)ccc1C#N` [Trifluoroacetate of compound 24], for which the DC50 is less than 100 nM.

The compound `CC1(C)[C@H](NC(=O)c2ccc(N3CCC(CN4CCN5c6cc(F)c(C7CCC(=O)NC7=O)cc6CC[C@@H]5C4)CC3)cc2)C(C)(C)[C@H]1Oc1ccc(C#N)c(C2CC2)c1` (stereo partly drawn) [Compound 117] showed a Degradation rate % of more than 70%.

On to `Cc1cc(O[C@H]2C(C)(C)[C@H](NC(=O)c3ccc(N4CCC(CN5CCN6c7cc(F)c(N8CCC(=O)NC8=O)cc7CC[C@H]6C5)CC4)cc3)C2(C)C)cc(C)c1C#N` [Compound 80], for which the DC50 is less than 100 nM.

Turning to `Cc1cc(O[C@H]2C(C)(C)[C@H](NC(=O)c3ccc(N4CCC(CN5CCN6c7cc(F)c(C8CCC(=O)NC8=O)cc7CC[C@H]6C5)CC4)cc3)C2(C)C)cc(C)c1C#N` (stereo partly drawn) [Compound 78], the DC50 is less than 100 nM.

As for `COc1cc(O[C@H]2C(C)(C)[C@H](NC(=O)c3ccc(N4CCC(CN5CCN6c7cc(F)c(C(=O)N[C@@H]8CCC(=O)NC8=O)cc7CC[C@H]6C5)CC4)cc3)C2(C)C)ccc1C#N` [Compound 14], the DC50 is less than 100 nM.

The DC50 is the concentration at which degradation of the target reaches its halfway point.
